The values that follow come from BindingDB's records for doi:10.7270/Q2765CSM (Burnham Center For Chemical Genomics, 2011).

The target of this assay is T1, Hexokinase-1 (Homo sapiens, UniProt P19367).
T1 sequence (P19367 whole entry): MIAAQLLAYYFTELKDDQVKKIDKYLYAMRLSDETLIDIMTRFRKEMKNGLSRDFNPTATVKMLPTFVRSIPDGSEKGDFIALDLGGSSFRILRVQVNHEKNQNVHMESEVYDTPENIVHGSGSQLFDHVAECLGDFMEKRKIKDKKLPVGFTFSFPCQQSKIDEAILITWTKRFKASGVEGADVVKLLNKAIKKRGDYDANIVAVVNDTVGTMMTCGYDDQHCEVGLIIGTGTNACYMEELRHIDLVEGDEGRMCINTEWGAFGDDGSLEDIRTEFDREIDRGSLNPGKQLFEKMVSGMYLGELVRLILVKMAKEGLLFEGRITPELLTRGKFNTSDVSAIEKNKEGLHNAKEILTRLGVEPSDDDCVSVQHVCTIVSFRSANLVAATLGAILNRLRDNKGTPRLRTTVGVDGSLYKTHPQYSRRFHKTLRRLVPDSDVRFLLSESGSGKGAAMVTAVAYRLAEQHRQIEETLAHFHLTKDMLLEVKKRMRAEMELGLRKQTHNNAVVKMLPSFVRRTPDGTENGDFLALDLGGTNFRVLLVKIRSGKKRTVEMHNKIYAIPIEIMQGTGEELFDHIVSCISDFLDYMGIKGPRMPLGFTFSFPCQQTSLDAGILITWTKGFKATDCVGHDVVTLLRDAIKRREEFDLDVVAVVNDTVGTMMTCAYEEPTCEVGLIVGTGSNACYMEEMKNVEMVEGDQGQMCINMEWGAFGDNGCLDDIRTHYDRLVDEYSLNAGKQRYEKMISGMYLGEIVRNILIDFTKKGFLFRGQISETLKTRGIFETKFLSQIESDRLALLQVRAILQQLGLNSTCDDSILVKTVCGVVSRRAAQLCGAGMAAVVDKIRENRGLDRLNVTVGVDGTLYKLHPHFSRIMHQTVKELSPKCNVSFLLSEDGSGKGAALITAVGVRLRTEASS
The assay can be described thus: HK1 enzyme activation by HKDC1 hits – biochemical, selectivity assay for HKDC1 activator project, dose response (AID 504762).

With `Nn1cnnc1N=NCc1cc(Br)cc(Br)c1O`, the EC50 (usually the concentration giving half of the maximal effect) came out at 42.3 µM. The value for `CC(N=Nc1nc2ccccc2o1)c1cc2ccccc2cn1` (centres undefined) was more than 80 µM; that for `CCCOC1=CC(=O)C(C=NNC(=S)Nc2ccccc2[N+](=O)[O-])C=C1` (centres undefined) [1-(2-nitrophenyl)-3-[[(E)-(6-oxo-4-propoxy-1-cyclohexa-2,4-dienylidene)methyl]amino]thiourea] was more than 80 µM. In turn, `CC(C)(C)c1nnc(N=NCc2cc(Br)ccc2O)n(N)c1=O` [4-azanyl-3-[2-[(E)-(3-bromanyl-6-oxidanylidene-cyclohexa-2,4-dien-1-ylidene)methyl]hydrazinyl]-6-tert-butyl-1,2,4-triazin-5-one] registered an EC50 of more than 80 µM. `Cc1[nH]n(-c2ccccc2)c(=O)c1CN=Nc1nncc(-c2ccccc2)n1` [(4E)-5-methyl-2-phenyl-4-[[(5-phenyl-1,2,4-triazin-3-yl)hydrazo]methylidene]-3-pyrazolone] had an EC50 of more than 80 µM. With `O=C1C(=C2C(=O)c3ccccc3C2=O)Nc2ccccc21` [MLS000071738], the EC50 was determined as 37.1 µM. As for `Oc1c(Cl)c(N=Cc2cccnc2)c(O)c2ccccc12` [MLS001195521], the EC50 came to 30.8 µM. The value for `Cc1ccc2c(C)c3ccc4ccccc4c3c[n+]2c1` [MLS002701915] was 5.2 µM; that for `CC(=O)Oc1cccc2c(O)c3c(c(O)c12)CC=CC3OC(C)=O` (centres undefined) [SMR001574207] was 34.1 µM.
